# In patent US9695155B2, “Herbicidal substituted pyrimidinyloxy benzene compounds” (E. I. DU PONT DE NEMOURS AND COMPANY, priority 2013, dated 2017):
# How the values were obtained:
# Assay in all cases: Test E preemergence
# kochia = type: in vivo, Kochia scoparia; conditions: for Kochia plant response rating: scale 0 to 100 (0 no effect, 100 complete control)
# Source text: (§1) Seeds of plant species selected from corn (Zea mays), soybean (Glycine max), velvetleaf (Abutilon theophrasti), lambsquarters (Chenopodium album), wild poinsettia (Euphorbia heterophylla), palmer pigweed (Amaranthus palmeri), waterhemp (common waterhemp, Amaranthus rudis), surinam grass (Brachiaria decumbens), large (Lg) crabgrass (Digitaria sanguinalis), Brazilian crabgrass (Digitaria horizontalis), fall panicum (Panicum dichotomiflorum), giant foxtail (Setaria faberii), green foxtail (Setaria viridis), goosegrass (Eleusine indica), johnsongrass (Sorghum halepense), ragweed (common ragweed, Ambrosia elatior), barnyardgrass (Echinochloa crus-galli), sandbur (southern sandbur, Cenchrus echinatus), arrowleaf sida (Sida rhombifolia), Italian ryegrass (Lolium multiflorum), dayflower (Virginia (VA) dayflower, Commelina virginica), field bindweed (Convolvulus arvensis), morningglory (Ipomoea coccinea), nightshade (eastern black nightshade, Solanum ptycanthum), kochia (Kochia scoparia), yellow nutsedge (Cyperus esculentus), cocklebur (common cocklebur, Xanthium strumarium), smartweed (ladysthumb smartweed, and hairy beggarticks (Bidens pilosa), were planted into a silt loam soil and treated preemergence with test chemicals formulated in a non-phytotoxic solvent mixture which included a surfactant.
# (§2) At the same time, plants from these crop and weed species and also horseweed (Canada horseweed, Conyza canadensis), waterhemp_RES1, (ALS & Triazine resistant common waterhemp, Amaranthus rudis), and waterhemp_RES2, (ALS & HPPD resistant common waterhemp, Amaranthus rudis) were planted in pots containing Redi-Earth® planting medium (Scotts Company, 14111 Scottslawn Road, Marysville, Ohio 43041) comprising spaghnum peat moss, vermiculite, wetting agent and starter nutrients were treated with postemergence applications of test chemicals formulated in the same manner. Plants ranged in height from 2 to 18 cm for postemergence treatments (1- to 4-leaf stage). Treated plants and controls were maintained in a greenhouse for 14 to 21 days, after which time all species were compared to controls and visually evaluated. Plant response ratings, summarized in Table E, are based on a scale of 0 to 100 where 0 is no effect and 100 is complete control. A dash (-) response means no test result.
# corn = type: in vivo, Zea mays; conditions: for Corn plant response rating: scale 0 to 100 (0 no effect, 100 complete control)
# Source text: as §1, §2
# waterhemp = type: in vivo, Amaranthus rudis; conditions: for Waterhemp plant response rating: scale 0 to 100 (0 no effect, 100 complete control)
# How it was run: (§3)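 Test chemicals formulated in a non-phytotoxic solvent mixture containing a surfactant were applied preemergence to seeds in silt loam soil or postemergence to plants at the 1- to 4-leaf stage in potting mix. After 14 to 21 days in a greenhouse, injury was visually rated against controls on a 0-100 scale (0 = no effect, 100 = complete control).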
# Italian ryegrass = type: in vivo, Lolium multiflorum; conditions: for Ryegrass, Italian plant response rating: scale 0 to 100 (0 no effect, 100 complete control)
# Source text: as §1, §2
# field bindweed = type: in vivo, Convolvulus arvensis; conditions: for Field Bindweed plant response rating: scale 0 to 100 (0 no effect, 100 complete control)
# How it was run: as §3
# hairy beggarticks = type: in vivo, Bidens pilosa; conditions: for Beggarticks plant response rating: scale 0 to 100 (0 no effect, 100 complete control)
# Source text: as §1, §2
# nightshade = type: in vivo, Solanum ptycanthum; conditions: for Nightshade plant response rating: scale 0 to 100 (0 no effect, 100 complete control)
# How it was run: as §3
# johnsongrass = type: in vivo, Sorghum halepense; conditions: for Johnsongrass plant response rating: scale 0 to 100 (0 no effect, 100 complete control)
# How it was run: as §3
# morningglory = type: in vivo, Ipomoea coccinea; conditions: for Morningglory plant response rating: scale 0 to 100 (0 no effect, 100 complete control)
# How it was run: as §3
# goosegrass = type: in vivo, Eleusine indica; conditions: for Goosegrass plant response rating: scale 0 to 100 (0 no effect, 100 complete control)
# How it was run: as §3
# giant foxtail = type: in vivo, Setaria faberii; conditions: for Foxtail, Giant plant response rating: scale 0 to 100 (0 no effect, 100 complete control)
# How it was run: as §3
# [1] = 125 g ai/ha, scale 0 to 100, 0 no effect, 100 complete control
# [2] = 250 g ai/ha, scale 0 to 100, 0 no effect, 100 complete control
# [3] = Preemergence, 62 g ai/ha, scale 0 to 100, 0 no effect, 100 complete control
# [4] = preemergence, 125 g ai/ha, scale 0 to 100, 0 no effect, 100 complete control
# [5] = preemergence, 250 g ai/ha, scale 0 to 100, 0 no effect, 100 complete control
# [6] = 8 g ai/ha, scale 0 to 100, 0 is no effect, 100 is complete control
smiles,measurement,setting,value
FC(F)(F)c1cnn(-c2ccccc2Oc2ncc(Cl)cn2)c1 [Compound 16],Kochia plant response rating,kochia; 16 g ai/ha,0
same,Kochia plant response rating,kochia; 31 g ai/ha,0
same,Kochia plant response rating,kochia; 62 g ai/ha,65
same,"Plant response rating, Kochia",kochia; [1],100
same,"Plant response rating, Kochia",kochia; [2],100
same,Corn plant response rating,corn; 16 g ai/ha,0
same,Corn plant response rating,corn; 31 g ai/ha,0
same,Corn plant response rating,corn; 62 g ai/ha,0
same,"Plant response rating, Corn",corn; [1],20
same,"Plant response rating, Corn",corn; [2],25
same,Waterhemp plant response rating,waterhemp; 16 g ai/ha,100
same,Waterhemp plant response rating,waterhemp; 31 g ai/ha,100
same,Waterhemp plant response rating,waterhemp; 62 g ai/ha,100
same,"Plant response rating, Waterhemp",waterhemp; [1],100
same,"Plant response rating, Waterhemp",waterhemp; [2],100
same,"Ryegrass, Italian plant response rating",Italian ryegrass; 16 g ai/ha,0
same,"Ryegrass, Italian plant response rating",Italian ryegrass; 31 g ai/ha,0
same,"Ryegrass, Italian plant response rating",Italian ryegrass; 62 g ai/ha,15
same,"Plant response rating, Ryegrass, Italian",Italian ryegrass; [1],40
same,"Plant response rating, Ryegrass, Italian",Italian ryegrass; [2],75
same,Field Bindweed plant response rating,field bindweed; 16 g ai/ha,0
same,Field Bindweed plant response rating,field bindweed; 31 g ai/ha,0
same,Field Bindweed plant response rating,field bindweed; 62 g ai/ha,0
same,"Plant response rating, Field Bindweed",field bindweed; [1],30
same,"Plant response rating, Field Bindweed",field bindweed; [2],60
same,Beggarticks plant response rating,"hairy beggarticks; 16 g ai/ha, preemergence",0
same,Beggarticks plant response rating,"hairy beggarticks; 31 g ai/ha, preemergence",0
same,"Plant response rating, Beggarticks",hairy beggarticks; [3],0
same,"Plant response rating, Beggarticks",hairy beggarticks; [4],0
same,"Plant response rating, Beggarticks",hairy beggarticks; [5],0
same,Nightshade plant response rating,nightshade; 16 g ai/ha,0
same,Nightshade plant response rating,nightshade; 31 g ai/ha,98
same,Nightshade plant response rating,nightshade; 62 g ai/ha,100
same,"Plant response rating, Nightshade",nightshade; [1],100
same,"Plant response rating, Nightshade",nightshade; [2],100
same,Johnsongrass plant response rating,johnsongrass; 16 g ai/ha,0
same,Johnsongrass plant response rating,johnsongrass; 31 g ai/ha,0
same,Johnsongrass plant response rating,johnsongrass; 62 g ai/ha,0
same,"Plant response rating, Johnsongrass",johnsongrass; [1],25
same,"Plant response rating, Johnsongrass",johnsongrass; [2],40
same,Morningglory plant response rating,morningglory; 16 g ai/ha,0
same,Morningglory plant response rating,morningglory; 31 g ai/ha,0
same,Morningglory plant response rating,morningglory; 62 g ai/ha,0
same,"Plant response rating, Morningglory",morningglory; [1],25
same,"Plant response rating, Morningglory",morningglory; [2],95
same,Goosegrass plant response rating,goosegrass; 16 g ai/ha,0
same,Goosegrass plant response rating,goosegrass; 31 g ai/ha,35
same,Goosegrass plant response rating,goosegrass; 62 g ai/ha,50
same,"Plant response rating, Goosegrass",goosegrass; [1],75
same,"Plant response rating, Goosegrass",goosegrass; [2],95
same,"Foxtail, Giant plant response rating",giant foxtail; 16 g ai/ha,15
same,"Foxtail, Giant plant response rating",giant foxtail; 31 g ai/ha,20
same,"Foxtail, Giant plant response rating",giant foxtail; 62 g ai/ha,100
same,"Plant response rating, Foxtail, Giant",giant foxtail; [1],100
same,"Plant response rating, Foxtail, Giant",giant foxtail; [2],100
"N#Cc1cccc(Oc2ncc(Cl)cn2)c1-n1cc(C(F)(F)F)cn1 [Compound 58, 3-[(5-chloro-2-pyrimidinyl)oxy]-2-[4-(trifluoromethyl)-1H-pyrazol-1-yl]benzonitrile]",Kochia plant response rating,kochia; 16 g ai/ha,35
same,Kochia plant response rating,kochia; 31 g ai/ha,100
same,Kochia plant response rating,kochia; 62 g ai/ha,100
same,"Plant response rating, Kochia",kochia; [1],100
same,"Plant response rating, Kochia",kochia; [2],100
same,Corn plant response rating,corn; 16 g ai/ha,0
same,Corn plant response rating,corn; 31 g ai/ha,5
same,Corn plant response rating,corn; 62 g ai/ha,40
same,"Plant response rating, Corn",corn; [1],65
same,"Plant response rating, Corn",corn; [2],70
same,Waterhemp plant response rating,waterhemp; 16 g ai/ha,98
same,Waterhemp plant response rating,waterhemp; 31 g ai/ha,100
same,Waterhemp plant response rating,waterhemp; 62 g ai/ha,100
same,"Plant response rating, Waterhemp",waterhemp; [1],100
same,"Plant response rating, Waterhemp",waterhemp; [2],100
same,"Ryegrass, Italian plant response rating",Italian ryegrass; 16 g ai/ha,30
same,"Ryegrass, Italian plant response rating",Italian ryegrass; 31 g ai/ha,35
same,"Ryegrass, Italian plant response rating",Italian ryegrass; 62 g ai/ha,75
same,"Plant response rating, Ryegrass, Italian",Italian ryegrass; [1],98
same,"Plant response rating, Ryegrass, Italian",Italian ryegrass; [2],98
same,Field Bindweed plant response rating,field bindweed; 16 g ai/ha,0
same,Field Bindweed plant response rating,field bindweed; 31 g ai/ha,20
same,Field Bindweed plant response rating,field bindweed; 62 g ai/ha,70
same,"Plant response rating, Field Bindweed",field bindweed; [1],98
same,"Plant response rating, Field Bindweed",field bindweed; [2],100
same,Beggarticks plant response rating,"hairy beggarticks; 16 g ai/ha, preemergence",0
same,Beggarticks plant response rating,"hairy beggarticks; 31 g ai/ha, preemergence",0
same,"Plant response rating, Beggarticks",hairy beggarticks; [3],0
same,"Plant response rating, Beggarticks",hairy beggarticks; [4],15
same,"Plant response rating, Beggarticks",hairy beggarticks; [5],100
same,Nightshade plant response rating,nightshade; 16 g ai/ha,90
same,Nightshade plant response rating,nightshade; 31 g ai/ha,98
same,Nightshade plant response rating,nightshade; 62 g ai/ha,100
same,"Plant response rating, Nightshade",nightshade; [1],100
same,"Plant response rating, Nightshade",nightshade; [2],100
same,Johnsongrass plant response rating,johnsongrass; 31 g ai/ha,35
same,Johnsongrass plant response rating,johnsongrass; 62 g ai/ha,95
same,"Plant response rating, Johnsongrass",johnsongrass; [1],95
same,"Plant response rating, Johnsongrass",johnsongrass; [2],100
same,Morningglory plant response rating,morningglory; 31 g ai/ha,50
same,Morningglory plant response rating,morningglory; 62 g ai/ha,100
same,"Plant response rating, Morningglory",morningglory; [1],100
same,"Plant response rating, Morningglory",morningglory; [2],100
same,Goosegrass plant response rating,goosegrass; 16 g ai/ha,10
same,Goosegrass plant response rating,goosegrass; 31 g ai/ha,70
same,Goosegrass plant response rating,goosegrass; 62 g ai/ha,95
same,"Plant response rating, Goosegrass",goosegrass; [1],100
same,"Plant response rating, Goosegrass",goosegrass; [2],100
same,"Foxtail, Giant plant response rating",giant foxtail; 16 g ai/ha,75
same,"Foxtail, Giant plant response rating",giant foxtail; 31 g ai/ha,100
same,"Foxtail, Giant plant response rating",giant foxtail; 62 g ai/ha,100
same,"Plant response rating, Foxtail, Giant",giant foxtail; [1],100
same,"Plant response rating, Foxtail, Giant",giant foxtail; [2],100
Fc1cccc(Oc2ncc(Cl)cn2)c1-n1cc(I)cn1 [Compound 179],"Plant response rating, Kochia",kochia; [6],0
same,Kochia plant response rating,kochia; 62 g ai/ha,25
same,"Plant response rating, Kochia",kochia; [1],75
same,"Plant response rating, Corn",corn; [6],0
same,Corn plant response rating,corn; 16 g ai/ha,0
same,Corn plant response rating,corn; 62 g ai/ha,0
same,"Plant response rating, Corn",corn; [1],0
same,"Plant response rating, Waterhemp",waterhemp; [6],0
same,Waterhemp plant response rating,waterhemp; 62 g ai/ha,90
same,"Plant response rating, Waterhemp",waterhemp; [1],98
same,"Plant response rating, Ryegrass, Italian",Italian ryegrass; [6],0
same,"Ryegrass, Italian plant response rating",Italian ryegrass; 62 g ai/ha,15
same,"Plant response rating, Ryegrass, Italian",Italian ryegrass; [1],15
same,"Plant response rating, Field Bindweed",field bindweed; [6],0
same,Field Bindweed plant response rating,field bindweed; 16 g ai/ha,0
same,Field Bindweed plant response rating,field bindweed; 62 g ai/ha,0
same,"Plant response rating, Field Bindweed",field bindweed; [1],30
same,"Plant response rating, Beggarticks","hairy beggarticks; 8 g ai/ha, preemergence, scale 0 to 100, 0 is no effect, 100 is complete control",0
same,Beggarticks plant response rating,"hairy beggarticks; 16 g ai/ha, preemergence",0
same,Beggarticks plant response rating,"hairy beggarticks; 62 g ai/ha, preemergence",0
same,"Plant response rating, Beggarticks",hairy beggarticks; [4],0
same,"Plant response rating, Nightshade",nightshade; [6],0
same,Nightshade plant response rating,nightshade; 62 g ai/ha,80
same,"Plant response rating, Nightshade",nightshade; [1],95
same,"Plant response rating, Johnsongrass",johnsongrass; [6],0
same,Johnsongrass plant response rating,johnsongrass; 62 g ai/ha,20
same,"Plant response rating, Johnsongrass",johnsongrass; [1],25
same,"Plant response rating, Morningglory",morningglory; [6],0
same,Morningglory plant response rating,morningglory; 62 g ai/ha,10
same,"Plant response rating, Morningglory",morningglory; [1],30
same,"Plant response rating, Goosegrass",goosegrass; [6],0
same,Goosegrass plant response rating,goosegrass; 62 g ai/ha,35
same,"Plant response rating, Goosegrass",goosegrass; [1],70
same,"Plant response rating, Foxtail, Giant",giant foxtail; [6],0
same,"Foxtail, Giant plant response rating",giant foxtail; 16 g ai/ha,0
same,"Foxtail, Giant plant response rating",giant foxtail; 62 g ai/ha,65
same,"Plant response rating, Foxtail, Giant",giant foxtail; [1],100
